# From US20160251403A1, “PEPTIDE COMBINATIONS AND USES THEREOF IN TREATING DUST MITE ALLERGY” (ALK-ABELLO A/S, priority 2013, published 2016)
# No end group written: not given here.
# Tests used:
# [1] = Solubility of peptides in aqueous solutions at different pH (visual inspection, OD, HPLC); type: physicochemical; settings: for Solubility at pH 7: evaluated by visual inspection
# Description: This example describes modifications of parent peptides to improve the aqueous solubility, in particular to increase the solubility in an aqueous solution having pH in a physiologically acceptable range, e.g. from 6 to 8. Solubility is closely related to the ratio between hydrophilic and hydrophobic amino acid residues and the net charge state of the peptide. Peptides have zero net charge at pH=pI, and would be expected to show the lowest solubility at this pH. […] The solubility of these peptides was increased at pH values outside the physiological range (data not shown).
# Peptides were tested for their ability to dissolve in aqueous solutions at different pH values. In short, each of the peptides were dissolved in water (pH about 5-6), hydrochloride solution at pH 2 (10 mM HCl), acetate buffer with pH 5 (20 mM acetate and 140 mM sodium chloride), phosphate buffer with pH 7 (20 mM phosphate and 140 mM sodium chloride) or bistrispropate buffer with pH 9 (20 mM bitrispropane and 140 mM sodium chloride, respectively, to produce a final molar concentration of the peptide of about 0.25 mM or 1 mM. Optionally, about 20% DMSO may be part of the solution. For comparison reasons, peptides were also dissolved in acetonitrile or DMSO. The solutions were inspected visually before and after centrifugation for turbidity, presence of particles/aggregates. In addition, presence of turbidity/particles/aggregates were detected by optical density (OD), but might also be detected by size-exclusion chromatography. Sub-visual particles may also be detected by dynamic light scattering (DLS) analysis. The solubility and stability of each peptide were also investigated using HPLC, e.g. RP-HPLC. For example, each of the solutions were injected onto the HPLC and the peak height or peak area of each of the peptides were compared to the corresponding peptide of a chromatogram of peptides dissolved in acetonitrile or DMSO—as peptides were assumed to be fully dissolved and stable in these solvents.
# DQA10501-DQB10301 = DQA10501-DQB10301 (Homo sapiens, UniProt P01909+P01920); experiment: Competitive MHC class II binding assay, DQA10501-DQB10301
# DRB5_0101 = DRB5_0101 (Homo sapiens, UniProt P01903+Q30154); experiment: Competitive MHC class II binding assay, DRB5_0101
# DQA10102-DQB10602 = experiment: Competitive MHC class II binding assay, DQA10102-DQB10602; settings: read-out: HLA-DQA10102-DQB10602; positive binding at cutoff 1000 nM
# DRB1_0901 = DRB1_0901 (Homo sapiens, UniProt P01903+P01911, A100R/A103E/D57H/D86V/F55Y/F60I/F76Y/I96F/K127E/L162R/M171V/P40D/Q125H/Q99R/R33Q/R42F/S133A/S66N/T210M/V115G/W38K/Y107V/Y59G/Y89S); experiment: Competitive MHC class II binding assay, DRB1_0901;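 further: displacement of a radiolabeled probe peptide from purified HLA class II protein, bound counts read after two to four days incubation, six concentrations spanning 100,000-fold, unlabeled probe as reference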
# DRB1_0701 = DRB1_0701 (Homo sapiens, UniProt P01903+P01911, A100R/A102G/A103Q/D57E/D86V/E43K/F76Y/K127E/L162R/M171V/P40G/Q125H/Q99D/R33Q/R42Y/R54Q/S133A/S66F/T210M/V115G/Y107V/Y59L/Y89S); experiment: Competitive MHC class II binding assay, DRB1_0701;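 further: displacement of a radiolabeled reference peptide from purified HLA class II protein, with complex-bound radioactivity counted after 2–4 days of incubation and six concentrations spanning a 100,000-fold range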
# DRB4_0101 = DRB4_0101 (Homo sapiens, UniProt P01903+P13762, G164S); experiment: Competitive MHC class II binding assay, DRB4_0101
# DRB1_0101 = DRB1_0101 (Homo sapiens, UniProt P01903+P01911, A100R/D57E/F55L/F60I/F76Y/I96L/L162R/M171V/P40L/Q125E/R42F/V115G/Y59C); experiment: Competitive MHC class II binding assay, DRB1_0101;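 further: competition against a radiolabeled probe peptide (0.1–1 nM) for purified HLA class II protein over 2–4 days, bound counts read after antibody capture, six competitor levels across 100,000-fold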
# DRB3_0101 = DRB3_0101 (Homo sapiens, UniProt P01903+P79483); experiment: Competitive MHC class II binding assay, DRB3_0101
# DRB3_0202 = DRB3_0202 (Homo sapiens, UniProt P01903+P79483, A212P/D57E/F66Y/L67A/R103Q/R218S/R40L/S89Y/T80R/V86D/Y55F/Y59H); experiment: Competitive MHC class II binding assay, DRB3_0202
# DQA10501-DQB10201 = DQA10501-DQB10201 (Homo sapiens, UniProt P01909+P01920, A45G/A70V/D89A/E106A/E77G/E98D/H199R/L107V/N214S/P84L/P87L/T103K/T109R/T172A/T60S/V78E/V99I/Y58L/Y62S/Y69I/Y79F); experiment: Competitive MHC class II binding assay, DQA10501-DQB10201
# DRB1_1302 = DRB1_1302 (Homo sapiens, UniProt P01903+P01911, A100E/A169T/K41T/L162R/M171V/P40S/Q125H/Q178H/Q39Y/Q99D/R42S/S66N/T262R/V115G/W38E/Y61H); experiment: Competitive MHC class II binding assay, DRB1_1302;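 further: purified HLA class II protein incubated two to four days with a radiolabeled reference binder and test peptide at six concentrations over a 100,000-fold range, complex-bound radioactivity counted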
# DRB1_0802 = DRB1_0802 (Homo sapiens, UniProt P01903+P01911, A100R/A103L/A169T/F76Y/H45Y/I96F/K41T/L162R/M171V/P40S/Q125H/Q178H/Q39Y/Q99D/R218S/R42G/S66Y/V115G/W38E); experiment: Competitive MHC class II binding assay, DRB1_0802
# DRB1_1501 = DRB1_1501 (Homo sapiens, UniProt P01903+P01911); experiment: Competitive MHC class II binding assay, DRB1_1501
# DRB1_0401 = DRB1_0401 (Homo sapiens, UniProt P01903+P01911, A100K/A169T/F76Y/I96L/K127E/L162R/M171V/N62H/P40V/Q125Y/R42H/S133A/S149N/S66Y/V115G/V209L/W38E); experiment: Competitive MHC class II binding assay, DRB1_0401
# DRB1_1101 = DRB1_1101 (Homo sapiens, UniProt P01903+P01911, A100R/A169T/A87E/I96F/K41T/L162R/M171V/P40S/Q125H/Q178H/Q39Y/Q99D/R42S/S66Y/T262R/V115G/W38E); experiment: Competitive MHC class II binding assay, DRB1_1101
# DRB1_0405 = DRB1_0405 (Homo sapiens, UniProt P01903+P01911, A100R/A169T/D86S/F76Y/I96L/K127E/L162R/M171V/N62H/P40V/Q125Y/R42H/S133A/S149N/S66Y/V115G/V209L/W38E); experiment: Competitive MHC class II binding assay, DRB1_0405
compound,measurement,setting,value
RIEYIQQNGVVEERSYPYVAR [Peptide 139],Solubility at pH 7 (visual inspection),[1],Clear
RRREALAQTHSAIAVIIGIKDLDAR [Peptide 145],Solubility at pH 7 (visual inspection),[1],Clear
YPPNANKIREALAQTHSAIA [pep-053],IC50,DQA10501-DQB10301,< 1000 nM
same,IC50,DRB5_0101,< 1000 nM
same,IC50,DQA10102-DQB10602,< 1000 nM
same,IC50,DRB1_0901,< 1000 nM
same,IC50,DRB1_0701,< 1000 nM
same,IC50,DRB4_0101,< 1000 nM
same,IC50,DRB1_0101,< 1000 nM
TNASSINGNAPAEIDLRQM [pep-041],IC50,DRB3_0101,< 1000 nM
same,IC50,DRB3_0202,< 1000 nM
same,IC50,DQA10501-DQB10201,< 1000 nM
same,IC50,DRB1_1302,< 1000 nM
NHEIKKVLVPGSHGSEPSII [pep-089],IC50,DRB1_0802,< 1000 nM
same,IC50,DRB4_0101,< 1000 nM
RRHAVNIVGYSNAQGVDYWIVRR [Peptide 138],Solubility at pH 7 (visual inspection),[1],Slight turbid
HRGKPFQLEAVFEANQNTKT-NH2 [pep-151],Solubility at pH 7,[1]; Table 11c,Clear
RRRRHAVNIVGYSNAQGVDYWIVR [Peptide 132],Solubility at pH 7 (visual inspection),[1],Slight turbid
RRHAVNIVGYSNAQGVDYWIVRRR [Peptide 133],Solubility at pH 7 (visual inspection),[1],Clear
RHAVNIVGYSNAQGVDYWIVR [Peptide 136],Solubility at pH 7 (visual inspection),[1],Slight turbid
CC[C@H](C)[C@H](NC(=O)CNC(=O)[C@@H](N)CCCNC(=N)N)C(=O)N[C@@H](CCC(=O)O)C(=O)N[C@@H](Cc1ccc(O)cc1)C(=O)N[C@H](C(=O)N[C@@H](CCC(N)=O)C(=O)N[C@@H](Cc1c[nH]cn1)C(=O)N[C@@H](CC(N)=O)C(=O)NCC(=O)N[C@H](C(=O)N[C@H](C(=O)N[C@@H](CCC(N)=O)C(=O)N[C@@H](CCC(=O)O)C(=O)N[C@@H](CO)C(=O)O)C(C)C)C(C)C)[C@@H](C)CC [pep-025],IC50,DQA10102-DQB10602,< 1000 nM
RREALAQTHSAIAVIIGIKDLDAR [Peptide 144],Solubility at pH 7 (visual inspection),[1],Clear
"SYYRYVAREQS [HDM205, reference compound]",IC50,DRB1_1501,< 1000 nM
same,IC50,DRB1_0802,< 1000 nM
same,IC50,DRB1_0901,< 1000 nM
same,IC50,DRB1_0401,< 1000 nM
same,IC50,DRB1_0701,< 1000 nM
same,IC50,DRB4_0101,< 1000 nM
same,IC50,DRB1_1101,< 1000 nM
same,IC50,DRB1_0405,< 1000 nM
same,IC50,DRB1_1302,< 1000 nM
RREALAQTHSAIAVIIGIKDLDA [Peptide 143],Solubility at pH 7 (visual inspection),[1],Slight turbid
RHAVNIVGYSNAQGVDYWIVRR [Peptide 137],Solubility at pH 7 (visual inspection),[1],Clear
RIEYIQQNGVVEERSYPYVARR [Peptide 140],Solubility at pH 7 (visual inspection),[1],Clear
RGIEYIQQNGVVEERSYPYVAR [pep-134],Solubility at pH 7,[1]; Table 11a,Clear
"ESVKYVQSNGGAI [HDM201, reference compound]",IC50,DRB1_1501,< 1000 nM
same,IC50,DRB3_0101,< 1000 nM
same,IC50,DRB1_0802,< 1000 nM
same,IC50,DRB1_0901,< 1000 nM
same,IC50,DRB1_0401,< 1000 nM
same,IC50,DRB1_0701,< 1000 nM
same,IC50,DRB4_0101,< 1000 nM
same,IC50,DRB1_0101,< 1000 nM
same,IC50,DRB1_0405,< 1000 nM
same,IC50,DRB1_1302,< 1000 nM
RRIEYIQQNGVVEERSYPYVARR [Peptide 141],Solubility at pH 7 (visual inspection),[1],Clear
LVGDNGVLASAIATHAKIRD-NH2 [pep-149],Solubility at pH 7,[1]; Table 11c,Clear
CC[C@H](C)[C@H](NC(=O)[C@H](CO)NC(=O)[C@@H]1CCCN1C(=O)[C@H](CCC(=O)O)NC(=O)[C@H](CO)NC(=O)CNC(=O)[C@H](Cc1c[nH]cn1)NC(=O)[C@H](CO)NC(=O)CN)C(=O)N[C@H](C(=O)N[C@@H](Cc1c[nH]cn1)C(=O)N[C@@H](CCCNC(=N)N)C(=O)NCC(=O)N[C@@H](CCCCN)C(=O)N1CCC[C@H]1C(=O)N[C@@H](Cc1ccccc1)C(=O)N[C@@H](CCC(N)=O)C(=O)N[C@@H](CC(C)C)C(=O)N[C@@H](CCC(=O)O)C(=O)N[C@@H](C)C(=O)O)[C@@H](C)CC [pep-090],IC50,DQA10501-DQB10301,< 1000 nM
same,IC50,DRB1_1501,< 1000 nM
same,IC50,DQA10102-DQB10602,< 1000 nM
same,IC50,DRB1_0901,< 1000 nM
same,IC50,DRB1_0701,< 1000 nM
same,IC50,DRB4_0101,< 1000 nM
same,IC50,DRB1_0101,< 1000 nM
same,IC50,DRB1_1302,< 1000 nM
KIREALAQTHSAIAVIIGIKDLDA-NH2 [pep-150],Solubility at pH 7,[1]; Table 11c,Clear
RRREALAQTHSAIAVIIGIKDLDARR [Peptide 146],Solubility at pH 7 (visual inspection),[1],Clear
RRIEYIQQNGVVEERSYPYVARRR [Peptide 142],Solubility at pH 7 (visual inspection),[1],Clear
"RGLKQMKRVGDANV [HDM35A, reference compound]",IC50,DRB1_0802,< 1000 nM
same,IC50,DRB1_0101,< 1000 nM
same,IC50,DRB1_1101,< 1000 nM
GSHGSDPSIIHRGKPFTLEA [pep-102],IC50,DQA10501-DQB10301,< 1000 nM
same,IC50,DRB1_1501,< 1000 nM
same,IC50,DQA10102-DQB10602,< 1000 nM
same,IC50,DRB1_0901,< 1000 nM
same,IC50,DRB1_0701,< 1000 nM
same,IC50,DRB4_0101,< 1000 nM
same,IC50,DRB1_0101,< 1000 nM
CC[C@H](C)[C@H](NC(=O)[C@@H](NC(=O)[C@@H](N)CO)[C@@H](C)CC)C(=O)N[C@@H](Cc1c[nH]cn1)C(=O)N[C@@H](CCCNC(=N)N)C(=O)NCC(=O)N[C@@H](CCCCN)C(=O)N1CCC[C@H]1C(=O)N[C@@H](Cc1ccccc1)C(=O)N[C@@H](CCC(N)=O)C(=O)N[C@@H](CC(C)C)C(=O)N[C@@H](CCC(=O)O)C(=O)N[C@@H](C)C(=O)O [pep-002],IC50,DQA10501-DQB10301,< 1000 nM
same,IC50,DRB1_1501,< 1000 nM
same,IC50,DRB1_0901,< 1000 nM
same,IC50,DRB1_0701,< 1000 nM
same,IC50,DRB4_0101,< 1000 nM
same,IC50,DRB1_0101,< 1000 nM
same,IC50,DRB1_1302,< 1000 nM
